# Patent US20260158152A1, “SPLICING MODULATOR ANTIBODY-DRUG CONJUGATES AND METHODS OF USE” (EISAI R&D MANAGEMENT CO., LTD., priority 2018, published 2026)
# What was measured:
# PC3 cells = assay: Cell viability, EPHA2-expressing PC3; assay type: cell-based; details: free payload of the ADC
# Protocol: (§1) HCC1954 (American Type Culture Collection (ATCC)) breast ductal carcinoma cells were plated at 2000 cells/well in flat bottom 96-well tissue culture plates (Corning) in a total volume of 90 μL tissue culture medium supplemented with 10% fetal bovine serum (ThermoFisher Scientific). Cells were treated with a 3-fold serial dilution of compound from 200 nM to 0.03 nM. Each concentration was tested in triplicate. At the time of treatment, a plate of untreated cells was evaluated using CellTiter-Glo®2.0 Luminescent Cell Viability Assay according to the manufacturer's recommendations (Promega; #G9241). CellTiter-Glo® 2.0 reagent was added to the medium, incubated, and assayed on an EnVision Multilabel Reader (PerkinElmer). Values represent time zero (TO). […] Percentage growth inhibition was calculated as: [(T144−T0)/(C−T0)]×100 for concentrations for which T144>/=T0 or [(T144−T0)/T0]×100 for concentrations for which T144<T0. The dose response curve plots were generated using Prism 7 (Graphpad) and fit using nonlinear regression analysis and the log (inhibitor) versus response—variable slope (four parameters).
# (§2) Anti-CD138 ADCs were tested in the CD138-expressing MOLP8 multiple myeloma cell line. Similarly, anti-EPHA2 ADCs were tested in the EPHA2-expressing PC3 prostate cancer cell line.
# N87 cells = assay: Cell viability CellTiter-Glo, N87; assay type: cell-based, human; details: unconjugated payload of the ADC
# Protocol: as §1
# HCC1954 (ATCC), 2000 cells/well), N87 (ATCC, 4000 cells/well), SKBR3 (ATCC, 3000 cells/well), and MCF7 (ATCC, 1500 cells/well) cell lines were used. Cell viability analysis was performed as described in section 2.3.
# NCIH1650.1 = assay: Payload cellular potency, CTGlo-ATS, 72 h, NCIH1650.1; assay type: cell-based; details: corresponding free payload, cell line #1, 72 h
# [1] = Caco-2 permeability of ADC payload; assay type: in vitro ADME; details: human, Caco-2; payload, apical to basolateral, 2 hours; read-out: Permeability Mean Caco-2 A-B Perm (10e−6 cm/s)
# Protocol: (§3) Integrity of cell monolayer was confirmed by TEER (transepithelial electrical resistance) and Lucifer yellow. Payloads were spiked in duplicate at 10 µM, separately, on both sides of the cell monolayer. Permeability rates from the apical to basolateral (A−B) direction and the basolateral to apical (B−A) direction were determined by sampling aliquots from both chambers immediately after treatment (t=0) and following incubation for 2 hours. Samples were protein precipitated with organic solvent containing internal standard and analyzed by LC-MS/MS (SCIEX; API 5500). The area ratio responses of payload/internal standard over time in both directions were used to generate permeability (cm/sec) values.
# Caco-2 cells = assay: Caco-2 permeability of ADC payload; assay type: in vitro ADME; details: corresponding free payload, B-A
# Protocol: as §3
# MOLP8 cells = assay: Cell viability, CD138-expressing MOLP8; assay type: cell-based; details: unconjugated payload of the ADC
# Protocol: as §1, §2
# THP1.1 = assay: Payload cell potency and lethality CellTiter-Glo, THP1; assay type: cell-based; details: payload of the ADC
# Protocol: Each concentration was tested in triplicate. […] Values represent time zero (TO).
# Ad2.1 pre-mRNA splicing = assay: In vitro splicing (IVS) RT-qPCR, Ad2.1 pre-mRNA in HeLa S3 nuclear extract; assay type: biochemical; details: payload of the ADC; read-out: qPCR-IVS-ATS GMean IC50 (nM) Ad2.1
# Protocol: To evaluate payload activity in a cell-free system, an in vitro splicing assay was performed. The payloads were incubated with nuclear extracts and pre-mRNA substrate minigenes.
# HeLa nuclear extract preparation: HeLa S3 cell pellets were resuspended in hypotonic buffer (10 mM HEPES PH 7.9, 1.5 mM MgCl2, 10 mM KCl, 0.2 mM PMSF, 0.5 mM DTT) and the suspension was brought up to a total of 5 packed cell volume (PCV). After centrifugation, the supernatant was discarded, and the cells were brought up to 3 PCV with hypotonic buffer and incubated on ice for 10 min. Cells were lysed using a dounce homogenizer and then centrifuged. […]. The nuclei were gently mixed for 30 min before centrifuging. The supernatant (nuclear extract) was then dialyzed into storage buffer (20 mM HEPES pH 7.9, 100 mM KCl, 0.2 mM EDTA, 20% glycerol, 0.2 mM PMSF, 0.5 mM DTT). Protein concentration was determined using NanoDrop 8000 UV-Vis spectrophotometer (ThermoFisher Scientific).
# IVS: All Ad2-derived sequences (Pellizzoni et al. (1998) Cell 95 (5): 615-24) were cloned into pcDNA3.1(+) vector (Promega) using 5′ EcoRI and 3′ XbaI restriction sites. The plasmids were linearized using XbaI and used as DNA templates in in vitro transcription reactions. The FtzΔi intron-less plasmid (Luo and Reed (1999) 96 (26): 14937-42) was linearized using EcoRI. […]
SMILES,Payload Rmin (PC3 cells),Payload Rmin (%) (N87 cells),CTGlo-ATS GMean LD50 72 h NCIH1650.1 (NCIH1650.1),"Papp A→B at 2 h, 10 µM [1]",Perm. Mean Caco-2 B-A Perm (Caco-2 cells),Payload Rmin (%) (MOLP8 cells),Payload cell lethality: CT..-ATS GMean LD50 (nM) THP1.1 (THP1.1),IC50 (Ad2.1 pre-mRNA splicing)
"CC[C@H](O)[C@@H](C)[C@H]1O[C@@H]1C[C@@](C)(O)/C=C/C=C(\C)[C@H]1OC(=O)C[C@H](O)CC[C@@](C)(OC(=O)N2CCNCC2)[C@@H](OC(C)=O)/C=C/[C@@H]1C [D8, (2S,3S,6S,7R,10R,E)-6-acetoxy-10-hydroxy-2-((R,2E,4E)-6-hydroxy-7-((2R,3R)-3-((2R,3S)-3-hydroxypentan-2-yl)oxiran-2-yl)-6-methylhepta-2,4-dien-2-yl)-3,7-dimethyl-12-oxooxacyclododec-4-en-7-yl piperazine-1-carboxylate]",−68.37%,−34.052%,>10 µM,0.138 ×10⁻⁶ cm/s,2.027 10e−6 cm/s,,,
CC(=O)N1CCC(n2nnc3c(F)cc(/C=C(\C)[C@H]4OC(=O)C[C@H](O)CC[C@H](C)[C@@H](OC(=O)N5CCNCC5)/C=C/[C@@H]4C)cc32)CC1 [D14],−79.835%,−52.662%,,0.08 ×10⁻⁶ cm/s,,−6.1%,,
C/C(=C\c1cc(F)cc(N2CCN(C(=O)Cn3cccn3)CC2)c1)[C@H]1OC(=O)C[C@H](O)CC[C@H](C)[C@@H](OC(=O)N2CCNCC2)/C=C/[C@@H]1C [D16],,,,,,,21.48 nM,18 nM
